Reference: PubChem BioAssay (NCI)
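All cell lines were grown in 96-well plates and treated with compound for 48 hours. TGI: total growth inhibition.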

Legend:
Assay in all cases: NCI-60 cell line screen, 48 h
[1] = test system: HCT-15 colon
[2] = test system: UACC-62 melanoma
[3] = test system: UO-31 renal
[4] = test system: XF 498 CNS
[5] = test system: MOLT-4 leukemia
[6] = test system: SK-MEL-28 melanoma
[7] = test system: UACC-257 melanoma
[8] = test system: OVCAR-4 ovarian
[9] = test system: OVCAR-5 ovarian
[10] = test system: M19-MEL melanoma
[11] = test system: NCI-H23 lung
[12] = test system: NCI-H460 lung
[13] = test system: LXFL 529 NSCLC
[14] = test system: SF-268 CNS
[15] = test system: HOP-18 NSCLC
[16] = test system: OVCAR-8 ovarian
[17] = test system: HOP-62 NSCLC
[18] = test system: COLO 205 colon
[19] = test system: NCI-H522 lung
[20] = test system: SW-620 colon
[21] = test system: MALME-3M melanoma
[22] = test system: HT29 colon
[23] = test system: HOP-92 NSCLC
[24] = test system: HCT-116 colon
[25] = test system: RXF 393 renal
[26] = test system: HL-60(TB) leukemia
[27] = test system: KM12 colon
[28] = test system: HCC-2998 colon
[29] = test system: M14 melanoma
[30] = test system: OVCAR-3 ovarian
[31] = test system: IGROV1 ovarian
[32] = test system: SK-MEL-5 melanoma
[33] = test system: ACHN renal
[34] = test system: U251 CNS
[35] = test system: CAKI-1 renal
[36] = test system: DMS 114 small cell lung
[37] = test system: SNB-75 CNS
[38] = test system: NCI-H226 lung
[39] = test system: SF-539 CNS
[40] = test system: RPMI-8226 leukemia
[41] = test system: LOX IMVI melanoma
[42] = test system: 786-0 renal
[43] = test system: KM20L2 colon
[44] = test system: A549 NSCLC
[45] = test system: SK-OV-3 ovarian
[46] = test system: SN12C renal
[47] = test system: EKVX NSCLC
[48] = test system: SF-295 CNS
[49] = test system: SNB-78 CNS
[50] = test system: SNB-19 CNS
[51] = test system: DMS 273 small cell lung
[52] = test system: K-562 leukemia
[53] = test system: CCRF-CEM leukemia
[54] = test system: SK-MEL-2 melanoma
[55] = test system: A498 renal
[56] = test system: TK-10 renal
[57] = test system: DLD-1 colon
[58] = test system: RXF-631 renal

## CC(=O)OC1COC(n2c(=S)n(-c3ccccc3)c(=O)c3cc(Br)ccc32)C(OC(C)=O)C1OC(C)=O (configuration not stated)
[1]
  TGI: > 100 µM
[2]
  TGI: > 100 µM
[3]
  TGI: > 100 µM
[4]
  TGI: 45.2 µM
[5]
  TGI: > 100 µM
[6]
  TGI: > 100 µM
[7]
  TGI: > 100 µM
[8]
  TGI: 31.6 µM
[9]
  TGI: > 100 µM
[10]
  TGI: > 100 µM
[11]
  TGI: > 100 µM
[12]
  TGI: > 100 µM
[13]
  TGI: > 100 µM
[14]
  TGI: > 100 µM
[15]
  TGI: > 100 µM
[16]
  TGI: > 100 µM
[17]
  TGI: 47.5 µM
[18]
  TGI: > 100 µM
[19]
  TGI: > 100 µM
[20]
  TGI: > 100 µM
[21]
  TGI: > 100 µM
[22]
  TGI: > 100 µM
[23]
  TGI: 55.5 µM
[24]
  TGI: > 100 µM
[25]
  TGI: 66.6 µM
[26]
  TGI: > 100 µM
[27]
  TGI: > 100 µM
[28]
  TGI: > 100 µM
[29]
  TGI: > 100 µM
[30]
  TGI: > 100 µM
[31]
  TGI: > 100 µM
[32]
  TGI: > 100 µM
[33]
  TGI: > 100 µM
[34]
  TGI: 44.5 µM
[35]
  TGI: > 100 µM
[36]
  TGI: > 100 µM
[37]
  TGI: 30.6 µM
[38]
  TGI: > 100 µM
[39]
  TGI: 77.7 µM
[40]
  TGI: > 100 µM
[41]
  TGI: > 100 µM
[42]
  TGI: > 100 µM
[43]
  TGI: > 100 µM
[44]
  TGI: > 100 µM
[45]
  TGI: > 100 µM
[46]
  TGI: > 100 µM
[47]
  TGI: > 100 µM
[48]
  TGI: > 100 µM
[49]
  TGI: > 100 µM
[50]
  TGI: 77.3 µM
[51]
  TGI: > 100 µM
[52]
  TGI: > 100 µM
[53]
  TGI: > 100 µM
[54]
  TGI: > 100 µM
[55]
  TGI: > 100 µM

## COc1c(Br)cc(Br)c(OC)c1-c1[nH]c(Br)c(Br)c1Br
[1]
  TGI: 20.1 µM
[2]
  TGI: 22.4 µM
[3]
  TGI: 8.73 µM
[4]
  TGI: 14.3 µM
[5]
  TGI: 21.8 µM
[56]
  TGI: 24.7 µM
[6]
  TGI: 20 µM
[7]
  TGI: 19.2 µM
[8]
  TGI: 16.3 µM
[9]
  TGI: 29 µM
[10]
  TGI: 23 µM
[11]
  TGI: 13.8 µM
[12]
  TGI: 32.8 µM
[14]
  TGI: 15.1 µM
[15]
  TGI: 9.05 µM
[57]
  TGI: 18.4 µM
[16]
  TGI: 25 µM
[17]
  TGI: 21.3 µM
[18]
  TGI: 28 µM
[19]
  TGI: 7.25 µM
[20]
  TGI: 21.7 µM
[21]
  TGI: 16.6 µM
[22]
  TGI: 18.3 µM
[23]
  TGI: 7.79 µM
[24]
  TGI: 12.3 µM
[25]
  TGI: 6.01 µM
[26]
  TGI: 25.1 µM
[27]
  TGI: 21.1 µM
[28]
  TGI: 19.2 µM
[29]
  TGI: 20.6 µM
[30]
  TGI: 14.3 µM
[31]
  TGI: 20.6 µM
[32]
  TGI: 20.5 µM
[33]
  TGI: 17.1 µM
[34]
  TGI: 25.7 µM
[35]
  TGI: 9.1 µM
[36]
  TGI: 19.4 µM
[37]
  TGI: 17.6 µM
[58]
  TGI: 21.9 µM
[38]
  TGI: 25.8 µM
[39]
  TGI: 21.8 µM
[40]
  TGI: 13.2 µM
[41]
  TGI: 31.6 µM
[42]
  TGI: 22.8 µM
[43]
  TGI: 22.4 µM
[44]
  TGI: 19.2 µM
[45]
  TGI: 28.1 µM
[46]
  TGI: 21.6 µM
[47]
  TGI: 21.1 µM
[48]
  TGI: 17.4 µM
[49]
  TGI: 28.8 µM
[50]
  TGI: > 100 µM
[51]
  TGI: 25.1 µM
[52]
  TGI: 15 µM
[53]
  TGI: 20.5 µM
[54]
  TGI: 13.7 µM
[55]
  TGI: 26 µM
